In brackets after ≈: the same amount, converted by molar mass.
How the values were obtained:
Assay type in all cases: functional
[1] = system: Mycobacterium tuberculosis variant bovis; assay: Antibacterial activity against Mycobacterium bovis BCG assessed bacterial growth inhibition by Alamar Blue cell viability assay
[2] = system: Mycobacterium tuberculosis variant bovis; assay: Antibacterial activity against Mycobacterium bovis BCG transfected with pVV16 vector assessed bacterial growth inhibition by Alamar Blue cell viability assay
[3] = system: Mycobacterium tuberculosis variant bovis; assay: Antibacterial activity against Mycobacterium bovis BCG transfected with pVV16 vector expressing Rv0636 assessed bacterial growth inhibition by Alamar Blue cell viability assay

Which results are given for `O=C(/C=C/c1ccc(O)cc1)c1ccc(O)cc1O` [ISOLIQUIRITIGENIN]?
MIC99 [1]: 50 µg/mL (≈ 195 µM); MIC99 [2]: 50 µg/mL (≈ 195 µM); MIC99 [3]: 64 µg/mL (≈ 250 µM)

For `O=C(/C=C/c1ccc(O)c(O)c1)c1ccc(O)cc1O` [BUTEIN], which MIC99 [1] is on record?
Its MIC99 is 47 µg/mL (≈ 173 µM).

And the MIC99 [2]?
The MIC99 was 43 µg/mL (≈ 158 µM).

What about the MIC99 [3] of the same molecule?
Its MIC99 is 59 µg/mL (≈ 217 µM).
